Results: patent US20130072495A1, “FUSED BICYCLIC KINASE INHIBITORS” (OSI Pharmaceuticals, LLC, priority 2010, published 2013)
pIC50: −log10 of the molar value.

Experiments:
[1] = test system: MKN45 cells; test: MKN45 cell proliferation assay (CellTiter-Glo); type: cell-based; conditions: Homo sapiens, MKN-45, 72 h; MKN45 cell line, 3 days incubation, at least duplicate experiments; read-out: Prolif. IC50
Method: The effect of inhibitors on the proliferation of MKN45 cells was determined using the following protocol. MKN45 cells were plated in Corning 3917 96-well white tissue culture treated plates in growth medium (RPMI, 10% FCS) at a density of 5000 cells/well in a total volume of 135 μL and incubated at 37° C., 5% CO2, 95% humidity overnight. The following day, one-tenth volume of a 10× concentration of compounds was added to the wells in an 8-point dilution series. The dilution series was composed of an initial 1:5 dilution of a 10 mM stock of compound in DMSO, followed by serial 1:4 dilutions in DMSO, then a 1:20 dilution in growth medium prior to the 1:10 dilution into the cell plate. Final DMSO concentration on the cells was 0.1%, there were control wells treated with both 0.1% DMSO and no DMSO. The typical dilution range is 10 μM to 0.6 nM. Once the compound was added to the cells, plates were incubated for 3 days at 37° C., 5% CO2 at 95% humidity. On the third day, after allowing all cells and reagents to come to room temperature, 25 μL of CellTiter-Glo reagent (Promega # G7573) was added to the wells. Plates were shaken on a platform for 10 minutes prior to reading luminescence for 0.1 seconds. The signal of the control wells was taken as 100% growth and growth inhibition was expressed as percent of control. IC50 values were determined from the percent of control data using a standard four-parameter model.
(§1) The IC50 values of exemplary compounds of the present invention determined in a cell proliferation assay using the MKN45 cell line according to the procedures described herein in at least duplicate experiments are abbreviated as follows and are shown in Table 1: A, IC50≦0.1 μM; B, 0.1 μM<IC50≦0.5 μM; C, 0.5 μM<IC50≦2 μM; D, IC50>2 μM; ND, not determined. The Example # of Table 1 corresponds to the compound example number as illustrated in the Experimental section above.
Treatment of this cell line with a selective MET inhibitor led to induction of apoptosis and inhibition of proliferation, whereas non-MET-amplified cell lines were not affected. Smolen et al., Proc. Natl. Acad. Sci. USA, 103(7):2316-2321 (2006). This cell line is thus “driven” by MET, and antiproliferative effects correlate very well with the inhibition of MET phosphorylation so that the cell proliferation IC50 values can be used as surrogate for the MET cell mechanistic IC50 values. Under the assay conditions described herein, the IC50 values correlate nearly 1:1.

[2] = molecular target: T1, MET (Homo sapiens, UniProt P08581); test: MET cell mechanistic assay (MKN45), phosphorylated MET levels; type: cell-based; conditions: MKN45 cell line, four hours incubation, at least duplicate experiments, read-out: MET mech IC50
T1 construct: endogenous in cells; host or cells: MKN45
T1 sequence (P08581 25-1390): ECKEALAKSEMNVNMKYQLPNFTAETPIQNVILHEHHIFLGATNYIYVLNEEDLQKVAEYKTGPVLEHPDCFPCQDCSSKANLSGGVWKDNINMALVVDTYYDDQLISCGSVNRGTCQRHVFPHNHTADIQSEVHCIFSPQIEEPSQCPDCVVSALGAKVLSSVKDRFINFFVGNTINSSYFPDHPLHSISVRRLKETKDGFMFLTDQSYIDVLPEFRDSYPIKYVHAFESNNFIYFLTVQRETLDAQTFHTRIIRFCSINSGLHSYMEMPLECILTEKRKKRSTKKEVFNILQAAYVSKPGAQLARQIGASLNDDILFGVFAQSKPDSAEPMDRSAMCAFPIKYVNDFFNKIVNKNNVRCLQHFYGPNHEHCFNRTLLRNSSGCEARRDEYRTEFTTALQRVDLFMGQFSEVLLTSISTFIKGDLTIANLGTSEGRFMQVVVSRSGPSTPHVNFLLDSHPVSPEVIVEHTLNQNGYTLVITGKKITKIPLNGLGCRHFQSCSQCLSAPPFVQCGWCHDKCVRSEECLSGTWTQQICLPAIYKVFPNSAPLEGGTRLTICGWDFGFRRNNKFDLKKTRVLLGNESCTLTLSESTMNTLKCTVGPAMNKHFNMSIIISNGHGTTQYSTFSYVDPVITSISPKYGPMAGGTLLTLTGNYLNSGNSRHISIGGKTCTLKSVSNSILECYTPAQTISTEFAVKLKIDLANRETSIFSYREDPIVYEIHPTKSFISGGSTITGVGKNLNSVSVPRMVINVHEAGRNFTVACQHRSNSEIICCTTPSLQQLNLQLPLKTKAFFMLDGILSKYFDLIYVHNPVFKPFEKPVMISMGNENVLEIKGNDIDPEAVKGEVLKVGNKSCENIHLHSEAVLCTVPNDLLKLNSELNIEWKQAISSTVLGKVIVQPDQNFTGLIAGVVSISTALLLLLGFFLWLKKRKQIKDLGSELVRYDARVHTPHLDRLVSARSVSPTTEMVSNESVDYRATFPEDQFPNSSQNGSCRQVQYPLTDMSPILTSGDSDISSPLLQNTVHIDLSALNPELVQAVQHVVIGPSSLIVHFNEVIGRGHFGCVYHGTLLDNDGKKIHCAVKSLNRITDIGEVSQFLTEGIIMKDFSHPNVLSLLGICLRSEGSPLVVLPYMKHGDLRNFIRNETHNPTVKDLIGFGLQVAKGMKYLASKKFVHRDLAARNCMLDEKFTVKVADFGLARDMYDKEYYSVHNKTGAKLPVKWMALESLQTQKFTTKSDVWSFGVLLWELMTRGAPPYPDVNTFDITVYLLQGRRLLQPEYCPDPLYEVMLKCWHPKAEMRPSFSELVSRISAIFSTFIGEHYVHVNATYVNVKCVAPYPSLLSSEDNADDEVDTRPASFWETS
Method: The cellular activity of the compounds of the present invention against MET may be determined by the following procedure. MKN45 cells were plated in Falcon 3072 96-well plates in growth media (RPMI, 10% FBS, 1% L-glutamine) at a density of 5000 cells/well and incubated at 37° C., 5% CO2 overnight. The following day, one-tenth volume of a 10× concentration of compounds was added to the wells in a 6-point dilution series. The dilutions series was composed of an initial […] in DMSO, followed by a […] in growth media, for a final DMSO concentration on cells of 0.5%. Control wells were treated with 0.5% DMSO. The typical range of dilution was 10 μM to 3 nM. Once compound was added to the cells, plates were incubated for four hours at 37° C., 5% CO2. Plates were then washed in PBS, and lysed in triton-based lysis buffer. Lysates were transferred to a precoated capture plate made by Biosource (Cat # KHO0281). The phosphorylated MET levels were measured by incubating with a rabbit polyclonal antibody against phosphorylated MET ([pYpYpY1230/1234/1235]) followed by an anti-rabbit antibody conjugated to HRP. Signal was measured on a Wallac Victor plate reader at 450 nm. The DMSO signal of the control wells was defined as 100% and the percent of inhibition of phosphorylated MET was expressed as percent of control. IC50 values were determined from the percent of control data using a standard four-parameter model.
as §1, with “in a MET cell mechanistic” for “in a cell proliferation”, “MET cell mechanistic assay using” for “a cell proliferation assay using”, “in Table 2: A, IC50≦0.1” for “in Table 1: A, IC50≦0.1”, “of Table 2 corresponds to” for “of Table 1 corresponds to”

pIC50 [1]	pIC50 [2]	Compound
< 5.70	< 5.70	CC(c1c(Cl)ccc(F)c1Cl)c1c[nH]c2nnc(-c3cnn(C4CCNCC4)c3)cc12 (stereo not drawn) [Example 16, 5-[1-(2,6-Dichloro-3-fluorophenyl)ethyl]-3-[1-(piperidin-4-yl)-1H-pyrazol-4-yl]-7H-pyrrolo[2,3-c]pyridazine]
6.30 to 7.00	6.30 to 7.00	CC(c1c(Cl)ccc(F)c1Cl)c1c[nH]c2ncc(-c3cnn(C4CCNCC4)c3)nc12 (stereo not drawn) [Example 2, 7-[1-(2,6-dichloro-3-fluorophenyl)ethyl]-2-(1-piperidin-4-yl-1H-pyrazol-4-yl)-5H-pyrrolo[2,3-b]pyrazine]
5.70 to 6.30	6.30 to 7.00	CC(c1c(Cl)ccc(F)c1Cl)c1c[nH]c2ncc(-c3cnn(C4CCN(C=O)CC4)c3)nc12 (stereo not drawn) [Example 3, 4-(4-{7-[1-(2,6-dichloro-3-fluorophenyl)ethyl]-5H-pyrrolo[2,3-b]pyrazin-2-yl}-1H-pyrazol-1-yl)piperidine-1-carbaldehyde]
